The nature of data set [1]: Urinary concentrations of NNI compounds in wild raccoons. It is filed as in vivo, raccoon, Procyon lotor. The settings on record: for GM ± SD urinary concentration / Percentile 25th urinary concentration / Percentile 50th urinary concentration / Percentile 75th urinary concentration / Percentile 95th urinary concentration / Percentile 100th urinary concentration: raccoon urine, n = 59.

The conditions of data set [2]: obtained from previous studies on humans; ref Ikenaka et al., [2019]; cited from earlier work.
The conditions of data set [3]: Japanese people, n = 45; ref Ikenaka et al. ([2019]); cited from earlier work.
For data set [4] the following is noted: mice, 78‐week carcinogenicity study; ref Hirano et al., [2018]; cited from earlier work.
Where [5] appears, read: Raccoons: present study (n = 59).

Read-outs that look alike come from different tables or passages of the source. Bounds are passed on as bounds.

In the case of `O=[N+]([O-])NC1=NCCN1Cc1ccc(Cl)nc1` [Imidacloprid, imidacloprid], in data set [1] (setting [5]), the “Mean urinary neonicotinoid concentration” value was 0.23 µg/g creatinine. In data set [1] (creatinine‐adjusted), the “GM ± SD urinary concentration” value is 0.08 ± 0.75 μg/g creatinine, the “Percentile 25th urinary concentration” value is “<PQL”, the “Percentile 50th urinary concentration” value is recorded as “<PQL” and the “Percentile 75th urinary concentration” value is on record as “<PQL”. In data set [1] (creatinine‐adjusted), the “Percentile 95th urinary concentration” value came to 0.43 µg/g creatinine and the “Percentile 100th urinary concentration” value came out at 5.76 µg/g creatinine. Moreover, in data set [1] (volume‐adjusted), the “GM ± SD urinary concentration” value was 0.06 ± 0.20 µg/L, the “Percentile 25th urinary concentration” value is “<PQL”, the “Percentile 50th urinary concentration” value is on record as “<PQL” and the “Percentile 75th urinary concentration” value is “<PQL”. For the same molecule, in data set [1] (volume‐adjusted), the “Percentile 95th urinary concentration” value is reported as 0.36 µg/L and the “Percentile 100th urinary concentration” value was determined as 1.45 µg/L. For the same molecule, the “urinary excretion correction coefficient r” value in data set [2] is reported as 0.133. Also, in data set [3], the “Maximum urinary neonicotinoid concentration” value was 1.59 µg/g creatinine and the “Mean urinary neonicotinoid concentration” value is 0.13 µg/g creatinine.
Regarding `CCN(Cc1ccc(Cl)nc1)/C(=C/[N+](=O)[O-])NC` [Nitenpyram, nitenpyram], in data set [1] (setting [5]), the “Maximum urinary neonicotinoid concentration” value is on record as 0 µg/g creatinine and the “Mean urinary neonicotinoid concentration” value stood at 0 µg/g creatinine. In data set [1] (creatinine‐adjusted), the “Percentile 25th urinary concentration” value was “<PQL”, the “Percentile 50th urinary concentration” value is recorded as “<PQL”, the “Percentile 75th urinary concentration” value was “<PQL” and the “Percentile 95th urinary concentration” value is reported as “<PQL”. Moreover, the “Percentile 100th urinary concentration” value in data set [1] (creatinine‐adjusted) was “<PQL”. In data set [1] (volume‐adjusted), the “Percentile 25th urinary concentration” value is recorded as “<PQL”, the “Percentile 50th urinary concentration” value is reported as “<PQL”, the “Percentile 75th urinary concentration” value is recorded as “<PQL” and the “Percentile 95th urinary concentration” value is on record as “<PQL”. In addition, the “Percentile 100th urinary concentration” value in data set [1] (volume‐adjusted) is “<PQL”. Also, in data set [3], the “Maximum urinary neonicotinoid concentration” value is given as 1.25 µg/g creatinine and the “Mean urinary neonicotinoid concentration” value is 0.1 µg/g creatinine.
Turning to `C/C(=N\C#N)N(C)Cc1ccc(Cl)nc1` [Acetamiprid, acetamiprid], the “Mean urinary neonicotinoid concentration” value in data set [1] (setting [5]) amounted to 0.28 µg/g creatinine. Besides, in data set [1] (creatinine‐adjusted), the “GM ± SD urinary concentration” value is reported as 0.10 ± 0.74 μg/g creatinine, the “Percentile 25th urinary concentration” value was “<PQL”, the “Percentile 50th urinary concentration” value was “<PQL” and the “Percentile 75th urinary concentration” value was 0.25 µg/g creatinine. Further, in data set [1] (creatinine‐adjusted), the “Percentile 95th urinary concentration” value was found to be 0.79 µg/g creatinine and the “Percentile 100th urinary concentration” value is listed as 5.61 µg/g creatinine. Further, in data set [1] (volume‐adjusted), the “GM ± SD urinary concentration” value was found to be 0.07 ± 0.20 µg/L, the “Percentile 25th urinary concentration” value is recorded as “<PQL”, the “Percentile 50th urinary concentration” value was “<PQL” and the “Percentile 75th urinary concentration” value was determined as 0.23 µg/L. Besides, in data set [1] (volume‐adjusted), the “Percentile 95th urinary concentration” value turned out to be 0.33 µg/L and the “Percentile 100th urinary concentration” value stood at 1.29 µg/L. The “urinary excretion correction coefficient r” value in data set [2] was 0.586. For the same molecule, in data set [3], the “Maximum urinary neonicotinoid concentration” value is 1.03 µg/g creatinine and the “Mean urinary neonicotinoid concentration” value is given as 0.043 µg/g creatinine.
Consider `CN/C(=N/CC1CCOC1)N[N+](=O)[O-]` (stereo not drawn) [Dinotefuran, dinotefuran], for which the “Mean urinary neonicotinoid concentration” value in data set [1] (setting [5]) was determined as 0.74 µg/g creatinine. In data set [1] (creatinine‐adjusted), the “GM ± SD urinary concentration” value is 0.37 ± 1.64 μg/g creatinine, the “Percentile 25th urinary concentration” value is on record as “<PQL”, the “Percentile 50th urinary concentration” value is “<PQL” and the “Percentile 75th urinary concentration” value was “<PQL”. For the same molecule, in data set [1] (creatinine‐adjusted), the “Percentile 95th urinary concentration” value came out at 1.38 µg/g creatinine and the “Percentile 100th urinary concentration” value came out at 10.28 µg/g creatinine. For the same molecule, in data set [1] (volume‐adjusted), the “GM ± SD urinary concentration” value was determined as 0.25 ± 0.76 µg/L, the “Percentile 25th urinary concentration” value is “<PQL”, the “Percentile 50th urinary concentration” value is given as “<PQL” and the “Percentile 75th urinary concentration” value is on record as “<PQL”. In data set [1] (volume‐adjusted), the “Percentile 95th urinary concentration” value worked out at 1.11 µg/L and the “Percentile 100th urinary concentration” value amounted to 5.67 µg/L. Moreover, the “urinary excretion correction coefficient r” value in data set [2] was 0.899. In data set [3], the “Maximum urinary neonicotinoid concentration” value is given as 9.49 µg/g creatinine and the “Mean urinary neonicotinoid concentration” value is given as 0.57 µg/g creatinine.
Take `CN/C(=N\[N+](=O)[O-])NCc1cnc(Cl)s1` [Clothianidin, clothianidin]: the “Mean urinary neonicotinoid concentration” value in data set [1] (setting [5]) amounted to 0.81 µg/g creatinine. Besides, in data set [1] (creatinine‐adjusted), the “GM ± SD urinary concentration” value is on record as 0.26 ± 1.65 μg/g creatinine, the “Percentile 25th urinary concentration” value was “<PQL”, the “Percentile 50th urinary concentration” value worked out at 0.21 µg/g creatinine and the “Percentile 75th urinary concentration” value was determined as 0.43 µg/g creatinine. For the same molecule, in data set [1] (creatinine‐adjusted), the “Percentile 95th urinary concentration” value is reported as 4 µg/g creatinine and the “Percentile 100th urinary concentration” value was 9.4 µg/g creatinine. In addition, in data set [1] (volume‐adjusted), the “GM ± SD urinary concentration” value amounted to 0.17 ± 0.89 µg/L, the “Percentile 25th urinary concentration” value is “<PQL”, the “Percentile 50th urinary concentration” value is listed as 0.14 µg/L and the “Percentile 75th urinary concentration” value came out at 0.45 µg/L. For the same molecule, in data set [1] (volume‐adjusted), the “Percentile 95th urinary concentration” value was 2.62 µg/L and the “Percentile 100th urinary concentration” value is listed as 4.33 µg/L. In addition, the “no‐observable‐adverse‐effect level (NOAEL)” value in data set [4] is listed as roughly 50 mg/kg. Also, in data set [2], the “urinary excretion correction coefficient r” value is 0.596. Further, in data set [3], the “Maximum urinary neonicotinoid concentration” value was 15.06 µg/g creatinine and the “Mean urinary neonicotinoid concentration” value is on record as 1.06 µg/g creatinine.
As for `CN1COCN(Cc2cnc(Cl)s2)/C1=N\[N+](=O)[O-]` [Thiamethoxam, thiamethoxam], the “Mean urinary neonicotinoid concentration” value in data set [1] (setting [5]) amounted to 0.29 µg/g creatinine. Further, in data set [1] (creatinine‐adjusted), the “GM ± SD urinary concentration” value is recorded as 0.10 ± 0.95 μg/g creatinine, the “Percentile 25th urinary concentration” value is “<PQL”, the “Percentile 50th urinary concentration” value is recorded as “<PQL” and the “Percentile 75th urinary concentration” value was “<PQL”. Moreover, in data set [1] (creatinine‐adjusted), the “Percentile 95th urinary concentration” value is on record as 0.5 µg/g creatinine and the “Percentile 100th urinary concentration” value came to 6.96 µg/g creatinine. Moreover, in data set [1] (volume‐adjusted), the “GM ± SD urinary concentration” value was 0.07 ± 0.95 µg/L, the “Percentile 25th urinary concentration” value is on record as “<PQL”, the “Percentile 50th urinary concentration” value is “<PQL” and the “Percentile 75th urinary concentration” value is recorded as “<PQL”. Also, in data set [1] (volume‐adjusted), the “Percentile 95th urinary concentration” value was determined as 0.42 µg/L and the “Percentile 100th urinary concentration” value stood at 7.30 µg/L. In addition, in data set [2], the “urinary excretion correction coefficient r” value is 0.6. Also, in data set [3], the “Maximum urinary neonicotinoid concentration” value was 2.11 µg/g creatinine and the “Mean urinary neonicotinoid concentration” value is 0.17 µg/g creatinine.
`C/C(=N\C#N)NCc1ccc(Cl)nc1` [N‐dm‐acetamiprid, N‐desmethyl‐acetamiprid]: in data set [1] (setting [5]), the “Mean urinary neonicotinoid concentration” value turned out to be 2.48 µg/g creatinine. Further, in data set [1] (creatinine‐adjusted), the “GM ± SD urinary concentration” value amounted to 0.16 ± 10.78 μg/g creatinine, the “Percentile 25th urinary concentration” value is on record as “<PQL”, the “Percentile 50th urinary concentration” value is “<PQL” and the “Percentile 75th urinary concentration” value was found to be 0.35 µg/g creatinine. Also, in data set [1] (creatinine‐adjusted), the “Percentile 95th urinary concentration” value worked out at 8.28 µg/g creatinine and the “Percentile 100th urinary concentration” value amounted to 76.56 µg/g creatinine. In addition, in data set [1] (volume‐adjusted), the “GM ± SD urinary concentration” value turned out to be 0.11 ± 9.33 µg/L, the “Percentile 25th urinary concentration” value was “<PQL”, the “Percentile 50th urinary concentration” value is reported as “<PQL” and the “Percentile 75th urinary concentration” value is on record as 0.22 µg/L. Also, in data set [1] (volume‐adjusted), the “Percentile 95th urinary concentration” value was determined as 3.28 µg/L and the “Percentile 100th urinary concentration” value came out at 71.28 µg/L. Also, in data set [3], the “Maximum urinary neonicotinoid concentration” value is 26.92 µg/g creatinine and the “Mean urinary neonicotinoid concentration” value is 2.2 µg/g creatinine.
With `N#C/N=C1\SCCN1Cc1ccc(Cl)nc1` [Thiacloprid, thiacloprid], in data set [1] (setting [5]), the “Mean urinary neonicotinoid concentration” value is 0.09 µg/g creatinine. Besides, in data set [1] (creatinine‐adjusted), the “GM ± SD urinary concentration” value worked out at 0.03 ± 0.44 μg/g creatinine, the “Percentile 25th urinary concentration” value was “<PQL”, the “Percentile 50th urinary concentration” value is “<PQL” and the “Percentile 75th urinary concentration” value is “<PQL”. In addition, in data set [1] (creatinine‐adjusted), the “Percentile 95th urinary concentration” value is “<PQL” and the “Percentile 100th urinary concentration” value is reported as 3.41 µg/g creatinine. Further, in data set [1] (volume‐adjusted), the “GM ± SD urinary concentration” value was 0.02 ± 0.04 µg/L, the “Percentile 25th urinary concentration” value is given as “<PQL”, the “Percentile 50th urinary concentration” value is on record as “<PQL” and the “Percentile 75th urinary concentration” value is “<PQL”. In data set [1] (volume‐adjusted), the “Percentile 95th urinary concentration” value is on record as “<PQL” and the “Percentile 100th urinary concentration” value is given as 0.32 µg/L. In data set [2], the “urinary excretion correction coefficient r” value is recorded as 0.05. For the same molecule, in data set [3], the “Maximum urinary neonicotinoid concentration” value was 0.2 µg/g creatinine and the “Mean urinary neonicotinoid concentration” value is 0.03 µg/g creatinine.

Source of the values: publication PMC9544187 (Environmental Toxicology and Chemistry, 2022).
